# Results taken from patent publication US7816332B2, “Stable aqueous solution of natamycin fungicide” (DSM IP Assets B.V., priority 2003, dated 2010).
# Where two headings read alike, the source gives them in different places.
# What was measured:
# [1] = Stability of non-buffered natamycin solutions on storage (Example 2); assay type: physicochemical
# Method: This Example describes the rapid preparation of a stable aqueous composition of natamycin in a non-buffered aqueous system with enhanced solubility. • A concentrated natamycin solution was prepared as described in Example 1 (1). • However, after diluting the concentrated natamycin solution in water, the pH was adjusted to 6.4-6.6 using HCL. Finally, solutions containing 101 and 202 ppm of natamycin were obtained. • The amount of natamycin in the compositions was determined after 24 hours storage at 21° C. The concentration of natamycin was 99 and 192 ppm respectively. Hardly any loss of activity was observed after 9 days storage at 6° C. The concentration of natamycin was 98 and 198 ppm respectively. Even after storage for 9 days at 21° C. the concentration of natamycin in the composition containing 101 ppm at t=0 was 82 ppm. […] The amount of dissolved natamycin of these solutions is at least 6 times higher than the maximum solubility in water at the same pH values
# [2] = Dissolution of natamycin when preparing solutions, with controls (Example 1); assay type: physicochemical
# Method: (§1) • An ethanolic aqueous solution having a pH of 12.8 was prepared by mixing 60 ml of a 0.04 N sodium hydroxide solution and 40 ml of 96% ethanol. • While stirring vigorously, 1 g of natamycin was added. The natamycin dissolved within 2 minutes. • Immediately after dissolution, the obtained concentrated natamycin solution was added to 20 l of a 0.01 M citrate buffer solution. A solution containing 57 ppm of natamycin and 0.2% of ethanol with a pH of 6.5 was obtained. • In a similar manner, a solution containing 101 ppm of natamycin and 0.4% of ethanol and a solution containing 202 ppm of natamycin and 0.8% of ethanol was obtained by adding the concentrated natamycin solution to […] of a 0.01 M citrate buffer respectively. Preparation of the Natamycin Solutions (2)
# Controls • 1 g of natamycin was added to a neutral ethanolic aqueous system containing up to 40% of ethanol.
# [3] = system: most yeasts; conditions: cited from earlier work
# [4] = system: most foodborne fungi; conditions: cited from earlier work
# [5] = Stability of buffered natamycin solutions on storage, HPLC (Example 1); assay type: physicochemical; conditions: for amount of natamycin after storage (HPLC): 24 hours at 21° C.
# Method: as §1
# Stability of the Solutions • The amount of natamycin in the compositions (1) was determined after 24 hours storage at 21° C. The amount of natamycin was determined using well-known methods (HPLC) and shown to be 57, 97 and 196 ppm respectively. Hardly any loss of activity was observed after 9 days storage at 6° C. The concentration of natamycin was 49, 100 and 170 ppm respectively. Even after storage for 9 days at 21° C., the concentration of natamycin of the composition containing 101 ppm at t=0 was 99 ppm.
# [6] = cited from earlier work
smiles,measurement,setting,value
C[C@@H]1C/C=C/C=C/C=C/C=C/[C@H](O[C@@H]2O[C@H](C)[C@@H](O)[C@H](N)[C@@H]2O)C[C@@H]2O[C@](O)(C[C@@H](O)C[C@H]3O[C@@H]3/C=C/C(=O)O1)C[C@H](O)[C@H]2C(=O)O [natamycin],amount of dissolved natamycin relative to maximum solubility in water at the same pH,[1]; Example 2 non-buffered solutions,at least 6 times
same,concentration of natamycin after storage,"[1]; non-buffered solution with 101 ppm at t=0, pH 6.4-6.6 (HCl), 24 hours at 21° C.",99 ppm
same,concentration of natamycin after storage,"[1]; non-buffered solution with 101 ppm at t=0, 9 days at 6° C.",98 ppm
same,concentration of natamycin after storage,"[1]; non-buffered solution with 101 ppm at t=0, 9 days at 21° C.",82 ppm
same,concentration of natamycin after storage,"[1]; non-buffered solution with 202 ppm at t=0, pH 6.4-6.6 (HCl), 24 hours at 21° C.",192 ppm
same,concentration of natamycin after storage,"[1]; non-buffered solution with 202 ppm at t=0, 9 days at 6° C.",198 ppm
same,time to dissolve,"[2]; 1 g natamycin in 100 ml ethanolic aqueous solution of pH 12.8 (0.04 N NaOH / 96% ethanol 60:40), vigorous stirring",≤ 2 min
same,dissolution (control),"[2]; 1 g natamycin in neutral ethanolic aqueous system containing up to 40% ethanol, a few hours of stirring",not fully dissolved
same,dissolution (control),"[2]; 200 ppm natamycin in buffered aqueous system, solvent not present",did not dissolve
same,dissolution (control),"[2]; 200 ppm natamycin, solvent present, without first raising the pH to 12.8",did not dissolve
same,dissolution (control),[2]; same procedure as Example 1 without adding a solvent,did not dissolve
same,minimal inhibitory concentration,[3],less than 5 ppm
same,minimal inhibitory concentration,[4],less than 10 ppm
same,amount of dissolved natamycin relative to maximum solubility in water at the same pH,[5]; Example 1 buffered solutions,at least 6 times
same,amount of natamycin after storage (HPLC),"[5]; solution with 57 ppm at t=0, 0.2% ethanol, citrate buffer pH 6.5",57 ppm
same,concentration of natamycin after storage,"[5]; solution with 57 ppm at t=0, 0.2% ethanol, citrate buffer, 9 days at 6° C.",49 ppm
same,amount of natamycin after storage (HPLC),"[5]; solution with 101 ppm at t=0, 0.4% ethanol, citrate buffer",97 ppm
same,concentration of natamycin after storage,"[5]; solution with 101 ppm at t=0, 0.4% ethanol, citrate buffer, 9 days at 6° C.",100 ppm
same,concentration of natamycin after storage,"[5]; solution with 101 ppm at t=0, citrate buffer, 9 days at 21° C.",99 ppm
same,amount of natamycin after storage (HPLC),"[5]; solution with 202 ppm at t=0, 0.8% ethanol, citrate buffer",196 ppm
same,concentration of natamycin after storage,"[5]; solution with 202 ppm at t=0, 0.8% ethanol, citrate buffer, 9 days at 6° C.",170 ppm
same,maximum solubility,[6]; acetone/water (4:1) system,110 ppm
same,solubility,[6]; ethanol/water (4:1) system,220 ppm
same,solubility,[6]; pure ethanol,40 ppm
same,solubility in water,[6]; water at neutral pH levels,30 ppm
